Results: US20050282824A1, “Substituted pyrimidines as inhibitors of bacterial type III protein secretion systems” (priority 2004, published 2005)

Key:
Format in all cases: cell-based
[1] = system: Type III protein secretion of ExoU by P. aeruginosa PA103; test: Tertiary assay: Type III-dependent secretion of ExoU by P. aeruginosa PA103; conditions: Pseudomonas aeruginosa, read-out: ExoU IC50(uM)
Summary of the method: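 PA103 grown in deferrated medium with nitrilotriacetic acid to induce Type III secretion, with or without inhibitor, over a prolonged growth period. Supernatant proteins concentrated by ammonium sulfate precipitation, separated by SDS-PAGE, Colloidal Blue-stained; 73.9 kDa ExoU band quantified by imaging relative to untreated controls.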

[2] = system: SPI1 type III protein secretion of SipB by S. enterica; test: Secondary assay: Type III-dependent protein secretion of the SipB polypeptide by S. enterica; conditions: Salmonella enterica, read-out: SipB IC50(uM)
Description: Secondary assay: Type III-dependent protein secretion of the SipB polypeptide by S. enterica. The SipB protein of S. enterica is another effector of the SPI1 type III protein secretion system from S. enterica. In this cell-based procedure, the Type III-dependent secretion of SipB from the bacterial cytoplasm to the extracellular medium was measured through its reactivity with a cognate mouse monoclonal.
Salmonella enterica cells growing either in the presence or in the absence of inhibitors are induced for the production of SipB. Following an established period of growth the cells are sedimented and the amount of SipB present in the supernatant is quantified with a scanning imager following application of immunoblot techniques. Detection may employ an anti-SipB mouse monoclonal antibody (e.g., obtained from Jorge Galan, SUNY at Stony Brook, N.Y.) followed by treatment with commercially available sheep anti-mouse polyclonal antibody conjugated with horseradish peroxidase. Thereafter the membrane is treated with a peroxidase chemiluminescent substrate and exposed to film for an appropriate exposure time. Inhibition may be measured relative to untreated controls.

[3] = system: SPI1 type III protein secretion of SopE'-'Bla by Salmonella enterica; test: Primary assay: Type III protein secretion of the chimeric SopE'-'Bla polypeptide by Salmonella enterica; conditions: read-out: SopE IC50(uM)
Summary of the method: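 S. enterica grown under SPI1-favouring conditions was induced to express SopE′-′Bla (SopE secretion signal fused to signal-less TEM-1 β-lactamase) and cultured with or without compound for a set time. Secreted reporter was quantified by colorimetric hydrolysis of cell-impermeant nitrocefin added to the cultures.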

Structure (SMILES) | IC50 [1] [µM] | IC50 [2] [µM] | IC50 [3] [µM]
O=C(N[C@H](Cc1ccc(Cl)cc1)C(=O)O)c1cc(N2CCC(c3ccccc3)CC2)nc(-c2ccc(C(F)(F)F)cc2)n1 [Compound 15, (R)-3-(4-Chlorophenyl)-2-{[6-(4-phenylpiperidin-1-yl)-2-(4-trifluoromethylphenyl)-pyrimidine-4-carbonyl]amino}propionic acid] | 68.1 | 8.5 | 3.6
O=C(N[C@@H](CSCc1ccccc1)C(=O)O)c1cc(N2CCC(c3ccccc3)CC2)nc(-c2ccc(C(F)(F)F)cc2)n1 [Compound 21, (R)-3-Benzylsulfanyl-2-{[6-(4-phenylpiperidin-1-yl)-2-(4-trifluoromethylphenyl)-pyrimidine-4-carbonyl]amino}propionic acid] | 39 | 24.8 | 3.6
O=C(NC(Cc1ccc(Cl)cc1)C(=O)O)c1cc(-c2ccc(C(F)(F)F)cc2)nc(N2CCN(c3ccccn3)CC2)n1 (stereo not drawn) [Compound 43, 3-(4-Chlorophenyl)-2-{[2-(4-pyridin-2-yl-piperazin-1-yl)-6-(4-trifluoromethyl-phenyl)pyrimidine-4-carbonyl]amino}propionic acid] | > 100 | 74.2 | 8.1
CC1CCN(c2cc(C(=O)N[C@@H](CSCc3ccccc3)C(=O)O)nc(-c3ccc(-c4ccccc4)cc3)n2)CC1 [Compound 40, (R)-3-Benzylsulfanyl-2-{[2-biphenyl-4-yl-6-(4-methylpiperidin-1-yl)pyrimidine-4-carbonyl]amino}propionic acid] | 61.2 | 23 | 5.1
O=C(N[C@@H](COCc1ccccc1)C(=O)O)c1cc(-c2ccc(Cl)c(Cl)c2)nc(N2CCN(c3ccccc3)CC2)n1 [Compound 32, (S)-3-Benzyloxy-2-{[6-(3,4-dichlorophenyl)-2-(4-phenyl-piperazin-1-yl)-pyrimidine-4-carbonyl]amino}propionic acid] | 40.7 | 5.7 | 3.2
Cc1cc(C(=O)NC(Cc2ccc(Cl)cc2)C(=O)O)nc(-c2ccc(-c3ccccc3)cc2)n1 (stereo not drawn) [Compound 1, 2-[(2-Biphenyl-4-yl-6-methyl-pyrimidine-4-carbonyl)amino]-3-(4-chlorophenyl)-propionic acid] | 83.9 | 4.4 | 7.4
O=C(N[C@H](Cc1ccc(Cl)cc1)C(=O)O)c1cc(N2CCCc3ccccc32)nc(-c2cccc(C(F)(F)F)c2)n1 [Compound 13, (R)-3-(4-Chlorophenyl)-2-{[6-(3,4-dihydro-2H-quinolin-1-yl)-2-(3-trifluoromethyl-phenyl)pyrimidine-4-carbonyl]amino}propionic acid] | > 100 | 19.4 | 1.3
O=C(N[C@@H](CSCc1ccccc1)C(=O)O)c1cc(N2CCN(c3ccccc3)CC2)nc(-c2ccc(F)c(F)c2)n1 [Compound 19, (R)-3-Benzylsulfanyl-2-{[2-(3,4-difluorophenyl)-6-(4-phenyl-piperazin-1-yl)-pyrimidine-4-carbonyl]amino}propionic acid] | 67.8 | 8 | 6.4
CN(C)c1ccc(-c2nc(C(=O)N[C@H](Cc3ccc(Cl)cc3)C(=O)O)cc(N3CCc4ccccc4C3)n2)cc1 [Compound 6, (R)-3-(4-Chlorophenyl)-2-{[6-(3,4-dihydro-1H-isoquinolin-2-yl)-2-(4-dimethylaminophenyl)pyrimidine-4-carbonyl]amino}propionic acid] | 68.4 | 50 | 4.5
O=C(NC(Cc1ccc(Cl)cc1)C(=O)O)c1cc(N2CCN(c3nccc(C(F)(F)F)n3)CC2)nc(-c2ccc([N+](=O)[O-])cc2)n1 (stereo not drawn) [Compound 53, 3-(4-Chlorophenyl)-2-({2-(4-nitrophenyl)-6-[4-(4-trifluoromethylpyrimidin-2-yl)-piperazin-1-yl]pyrimidine-4-carbonyl}amino)propionic acid] | 40.4 | 84.6 | 1.2
O=C(N[C@@H](CSCc1ccccc1)C(=O)O)c1cc(N2CCN(c3ccccc3)CC2)nc(-c2ccc(Cl)cc2)n1 [Compound 24, (R)-3-Benzylsulfanyl-2-{[2-(4-chlorophenyl)-6-(4-phenyl-piperazin-1-yl)-pyrimidine-4-carbonyl]amino}propionic acid] | 46.9 | 39.2 | 5.45
O=C(NC(Cc1ccc(Cl)cc1)C(=O)O)c1cc(N2CCN(c3nccc(C(F)(F)F)n3)CC2)nc(-c2ccc(F)cc2)n1 (stereo not drawn) [Compound 56, 3-(4-Chlorophenyl)-2-({2-(4-fluorophenyl)-6-[4-(4-trifluoromethylpyrimidin-2-yl)-piperazin-1-yl]pyrimidine-4-carbonyl}amino)propionic acid] | 55.4 | 4.5 | 2.2
CC1CCN(c2nc(C(=O)NC(Cc3ccc(Cl)cc3)C(=O)O)cc(N3CCN(c4nccc(C(F)(F)F)n4)CC3)n2)CC1 (stereo not drawn) [Compound 48, 3-(4-Chlorophenyl)-2-({2-(4-methylpiperidin-1-yl)-6-[4-(4-trifluoromethyl-pyrimidin-yl)piperazin-1-yl]pyrimidine-4-carbonyl}amino)propionic acid] | > 100 | 40 | 1.3
CC1CCN(c2nc(C(=O)N[C@@H](COCc3ccccc3)C(=O)O)cc(N3CCN(c4nccc(C(F)(F)F)n4)CC3)n2)CC1 [Compound 47, (S)-3-Benzyloxy-2-({2-(4-methylpiperidin-1-yl)-6-[4-(4-trifluoromethylpyrimidin-2-yl)piperazin-1-yl]pyrimidine-4-carbonyl}amino)propionic acid] | > 100 | 10.4 | 4.5
O=C(N[C@@H](CSCc1ccccc1)C(=O)O)c1cc(N2CCC(c3ccc(F)cc3)CC2)nc(-c2ccc(Cl)c(Cl)c2)n1 [Compound 17, (R)-3-Benzylsulfanyl-2-({2-(3,4-dichlorophenyl)-6-[4-(4-fluorophenyl)piperidin-1-yl]pyrimidine-4-carbonyl}amino)propionic acid] | > 100 | 23 | 1.6
O=C(NC(Cc1ccc(Cl)cc1)C(=O)O)c1cc(-c2cccc(C(F)(F)F)c2)nc(N2CCN(c3ccccc3)CC2)n1 (stereo in doubt) [Compound 31, (R)-3-(4-Chlorophenyl)-2-{[2-(4-phenyl-piperazin-1-yl)-6-(3-trifluoromethylphenyl)pyrimidine-4-carbonyl]amino}propionic acid] | 88.7 | 13.3 | 4.1
Cc1cc(C(=O)N[C@@H](COCc2ccccc2)C(=O)O)nc(-c2ccc(-c3ccccc3)cc2)n1 [Compound 36, (S)-3-Benzyloxy-2-[(2-biphenyl-4-yl-6-methyl-pyrimidine-4-carbonyl)amino]-propionic acid] | > 100 | 79.6 | 32.7
O=C(N[C@@H](COCc1ccccc1)C(=O)O)c1cc(N2CCN(c3nccc(C(F)(F)F)n3)CC2)nc(-c2ccoc2)n1 [Compound 60, (S)-3-Benzyloxy-2-({2-furan-3-yl-6-[4-(4-trifluoromethylpyrimidin-2-yl)piperazin-1yl]-pyrimidine-4-carbonyl}amino)propionic acid] | > 100 | 15.6 | 16.4
O=C(N[C@@H](CSCc1ccccc1)C(=O)O)c1cc(N2CCC(c3ccc(F)cc3)CC2)nc(-c2ccc(C(F)(F)F)cc2)n1 [Compound 22, (R)-3-Benzylsulfanyl-2-{[6-[4-(4-fluorophenyl)piperidin-1-yl]-2-(4-trifluoromethylphenyl)pyrimidine-4-carbonyl]amino}propionic acid] | 52.6 | > 100 | 1.8
